Data as given in US20240016777A1, “COMPOUNDS AND METHODS FOR TREATING VIRAL INFECTIONS” (priority 2020, published 2024).

What follows are compounds tested against SARS-CoV-2 M^pro (Severe acute respiratory syndrome coronavirus 2 (2019-nCoV) (SARS-CoV-2), UniProt P0DTD1) (assay: biochemical). Conditions: not given.

Compound | Mpro inhibitory activity (comparison in words)
O=C1CC(c2ccccc2)Oc2cc(O)cc(O)c21 (centres unmarked) [Pinocembrin] | relatively poor inhibition
COc1ccc(-c2cc(=O)c3c(O)cc(O)cc3o2)cc1-c1c(O)cc(O)c2c(=O)cc(-c3ccc(O)cc3)oc12 [bilobetin] | comparable to amentoflavone

Same assay, conditions: compound at 17 μM, duplicates, 20 min pre-incubation

Compound | Activity (% enzyme activity by fluorescence relative to initial enzyme activity)
C=C(C)[C@H](CC=C(C)C)Cc1c(O)cc(O)c2c1O[C@H](c1ccc(O)cc1OC)CC2=O [Leachianone A] | + (≥80% enzyme activity as indicated by fluorescence measurements)

Same assay, conditions: compound at 17 μM, duplicates, 20 min pre-incubation; read-out: Activity (% enzyme activity by fluorescence relative to initial enzyme activity)

Compound | remaining activity at 17 µM
C=C(C)[C@H](CC=C(C)C)Cc1c(O)cc(O)c2c(=O)c(O)c(-c3ccc(O)cc3O)oc12 [Kushenol C] | 10 to 80%
CC(C)=CCc1c(O)ccc(C(=O)[C@@H]2C(c3c(O)cc(O)c4c(=O)c(CC=C(C)C)c(-c5ccc(O)cc5O)oc34)C=C(C)CC2c2ccc(O)cc2O)c1O (some centres unmarked) [Kuwanon H] | 10 to 80%
CC(C)=CCc1c(O)cc(O)c2c(=O)cc(-c3ccc(O)cc3)oc12 [Licoflavone C] | > 80%
CC(C)=CCc1c(O)ccc(-c2coc3cc(O)cc(O)c3c2=O)c1O [Licoisoflavone A] | > 80%
COc1cc(O)c2c(c1CC=C(C)C)O[C@H](c1cc(CC=C(C)C)c(O)cc1O)CC2=O [Maackiaflavanone] | < 10%
CC(C)=CCc1c(-c2ccc(O)cc2O)oc2c3c(cc(O)c2c1=O)OC(C)(C)C=C3 [Morusin] | 10 to 80%
CC(C)=CCCC1=C[C@@H](c2c(O)cc3oc(-c4ccc(O)cc4O)cc(=O)c3c2O)[C@H](C(=O)c2ccc(O)cc2O)[C@@H](c2ccc(O)cc2O)C1 [Multicaulisin] | < 10%
CC(C)=CCc1c2c(c3occ(-c4ccc(O)cc4)c(=O)c3c1O)C=CC(C)(C)O2 [Osajin] | > 80%
CC(C)=CCc1c2c(c(O)c3c(=O)c(-c4ccc(O)c(O)c4)coc13)CC(C(C)(C)O)O2 (centres unmarked) [furowanin A] | 10 to 80%

Same assay, conditions: compounds evaluated at 0.015-300 μM; read-out: IC50

Compound | IC50
COc1cc(O)c2c(c1CC=C(C)C)O[C@H](c1cc(CC=C(C)C)c(O)cc1O)CC2=O [Maackiaflavanone] | 3 µM
CC(C)=CCCC1=C[C@@H](c2c(O)cc3oc(-c4ccc(O)cc4O)cc(=O)c3c2O)[C@H](C(=O)c2ccc(O)cc2O)[C@@H](c2ccc(O)cc2O)C1 [Multicaulisin] | 17 µM
CC(C)=CCc1c2c(c(O)c3c(=O)c(-c4ccc(O)c(O)c4)coc13)CC(C(C)(C)O)O2 (centres unmarked) [furowanin A] | 7 µM

Same assay, conditions: read-out: Activity (% enzyme activity by fluorescence relative to initial enzyme activity), compound at 17 μM, duplicates, 20 min pre-incubation

Compound | remaining activity at 17 µM
CC(C)=CCc1c([C@H]2CCc3ccc(O)cc3O2)ccc(O)c1O [Kazinol U] | > 80%
COc1ccc(-c2oc3c(CC=C(C)C)c(O)cc(O)c3c(=O)c2O[C@@H]2O[C@@H](C)[C@H](OC(C)=O)[C@@H](O[C@@H]3O[C@H](COC(C)=O)[C@@H](O)[C@H](O)[C@H]3O)[C@H]2O)cc1 [Korepimedoside A] | 10 to 80%
C=C(C)[C@H](CCC(C)(C)O)Cc1c(O)cc(OC)c2c1O[C@H](c1ccc(O)cc1O)CC2=O [Kurarinol] | > 80%
C=C(C)[C@H](CC=C(C)C)Cc1c(O)cc(OC)c2c1O[C@H](c1ccc(O)cc1O)CC2=O [Kurarinone] | > 80%
C=C(C)[C@H](CC=C(C)C)Cc1c(O)cc(O)c2c1O[C@H](c1ccccc1O)CC2=O [Kushenol A] | > 80%
C=C(C)[C@H](CC=C(C)C)Cc1c(O)c(CC=C(C)C)c(O)c2c1O[C@H](c1ccc(O)cc1O)CC2=O [Kushenol B] | > 80%
CC(C)=CCc1c(O)c(CC=C(C)C)c2c(c1O)C(=O)C[C@@H](c1ccc(O)cc1O)O2 [Kushenol E] | 10 to 80%
C=C(C)[C@H](CC=C(C)C)Cc1c(O)cc(O)c2c1O[C@H](c1ccc(O)cc1O)CC2=O [Kushenol F] | > 80%
C=C(C)[C@H](CC=C(C)C)Cc1c(O)cc(OC)c2c1O[C@H](c1ccc(O)cc1O)[C@@H](O)C2=O [Kushenol I] | > 80%
C=C(C)[C@H](CCC(C)(C)O)Cc1c(O)cc(OC)c2c1O[C@H](c1ccc(O)cc1O)[C@H](O)C2=O [Kushenol K] | > 80%
CC(C)=CCc1c(O)c(CC=C(C)C)c2c(c1O)C(=O)[C@H](O)[C@@H](c1ccc(O)cc1O)O2 [Kushenol L] | > 80%
C=C(C)[C@H](CC=C(C)C)Cc1c(O)cc(OC)c2c1O[C@H](c1ccc(O)cc1O)[C@H](O)C2=O [Kushenol N] | > 80%
COc1cc([C@@H]2CC(=O)c3c(O)cc(O)c(CC=C(C)C)c3O2)c(O)cc1O [Kushenol W] | > 80%
C=C(C)C(CC=C(C)C)Cc1c(O)cc(O)c2c1O[C@H](c1ccc(O)cc1O)[C@@H](O)C2=O (some centres unmarked) [Kushenol X] | > 80%
CC(C)=CCCC1(C)C=Cc2c(cc3c(c2O)C(=O)C[C@@H](c2ccc(O)cc2O)O3)O1 (some centres unmarked) [Kuwanol C] | 10 to 80%
CC(C)=CCc1c(O)cc(O)c2c1O[C@H](c1ccc(O)cc1O)CC2=O [Leachianone G] | > 80%
CC(C)=CCc1c(O)cc2oc(-c3ccc(O)cc3)c(O)c(=O)c2c1O [Licoflavonol] | > 80%
COc1c(CC=C(C)C)c(O)cc2c1C[C@H](c1ccc(O)c(CC=C(C)C)c1O)CO2 [Licoricidin] | > 80%
COc1cc(O)c(-c2coc3cc(O)ccc3c2=O)c(OC)c1CC=C(C)C [Licoricone] | > 80%
COc1cc2c(c(OC)c1CC=C(C)C)C[C@H](c1ccc(O)c(CC=C(C)C)c1O)CO2 [Licorisoflavan A] | 10 to 80%
CC(C)=CCc1cc(-c2coc3cc(O)c(CC=C(C)C)c(O)c3c2=O)ccc1O [Lupalbigenin] | > 80%
CC(C)=CCc1c(O)cc2c(c1O)C(=O)[C@@]1(O)c3ccc(O)cc3O[C@H]1O2 [Lupinol C] | > 80%
CC(C)=CCc1c(O)cc(O)c2c(=O)c(-c3ccc(O)cc3)coc12 [Lupiwighteone] | > 80%
CC(C)=CCc1c(O)cc2occ(-c3ccc(O)cc3O)c(=O)c2c1O [Luteone] | > 80%
CC(C)=CCc1c(-c2ccc(O)cc2O)oc2c(CC=C(C)C)c(O)cc(O)c2c1=O [Mulberrin] | > 80%

Compound | remaining activity at 17 µM
CC(C)=CCc1cc(-c2coc3cc(O)ccc3c2=O)ccc1O [Neobavaisoflavone] | 10 to 80%
CC(C)=CCc1c(O)ccc2c1O[C@H]1c3ccc(O)cc3OC[C@@H]21 [Phaseollidin] | > 80%
CC(C)=CCc1c(O[C@@H]2O[C@H](CO)[C@@H](O)[C@H](O)[C@H]2O)cc(O)c2c1O[C@H](c1ccc(O)cc1)[C@@H](O)C2=O [Phellamurin] | > 80%
COc1ccc(-c2oc3c(CC=C(C)C)c(O)cc(O)c3c(=O)c2O[C@@H]2O[C@@H](C)[C@H](O)[C@@H](O)[C@H]2O[C@@H]2O[C@H](CO)[C@@H](O)[C@H](O)[C@H]2O)cc1 [Sagittatoside A] | > 80%
COc1ccc(-c2oc3c(CC=C(C)C)c(O)cc(O)c3c(=O)c2O[C@@H]2O[C@@H](C)[C@H](O)[C@@H](O)[C@H]2O[C@@H]2OC[C@@H](O)[C@H](O)[C@H]2O)cc1 [Sagittatoside B] | > 80%
COc1ccc(-c2oc3c(CC=C(C)C)c(O)cc(O)c3c(=O)c2O[C@@H]2O[C@@H](C)[C@H](O)[C@@H](OC(C)=O)[C@H]2O[C@@H]2O[C@H](CO)[C@@H](O)[C@H](O)[C@H]2O)cc1 [Sagittatoside C] | > 80%
CC(C)=CCCC1(C)CCc2c(cc(O)c3c2OC(c2ccc(O)cc2O)CC3=O)O1 (centres unmarked) [Sanggenol L] | > 80%
CC(C)=CCC/C(C)=C/Cc1c(O)c(CC=C(C)C)cc(C2CC(=O)c3c(O)cc(O)cc3O2)c1O (centres unmarked) [Sanggenol P] | > 80%
CC(C)=CCCC1(C)C=Cc2c(ccc([C@@H]3CC(=O)c4c(O)cc(O)cc4O3)c2O)O1 (some centres unmarked) [Sanggenon N] | > 80%
CC(C)=CC[C@]12Oc3cc(O)c([C@H]4C=C(C)C[C@H](c5ccc(O)cc5O)[C@H]4C(=O)c4cc(O)cc(O)c4)c(O)c3C(=O)[C@@]1(O)Oc1cc(O)ccc12 [Sanggenone C] | < 10%
CC(C)=CC[C@]12Oc3cc(O)c([C@@H]4C=C(C)C[C@H](c5ccc(O)cc5O)[C@H]4C(=O)c4cc(O)cc(O)c4)c(O)c3C(=O)[C@@]1(O)Oc1cc(O)ccc12 [Sanggenone D] | < 10%
CC(C)=CCCC1(C)C=Cc2c(O)ccc(-c3oc4cc(O)cc(O)c4c(=O)c3CC=C(C)C)c2O1 (centres unmarked) [Sanggenone K] | > 80%
CC(C)=CCc1c(O)cc2c(c1O)C(=O)[C@H](O)[C@@H](c1ccc(O)cc1)O2 [Shuterin] | > 80%
COc1cc(O)c(CC=C(C)C)c2oc(-c3ccc(O)cc3)c(O)c(=O)c12 [Sophoflavescenol] | > 80%
CC(C)=CCc1c(O)cc(O)c2c1OC(c1cc3c(cc1O)O[C@@H](c1ccc(O)cc1)[C@@H]3c1cc(O)cc(O)c1)CC2=O (some centres unmarked) [Sophoraflavanone H] | > 80%
C=C(C)[C@H](CC=C(C)C)Cc1c(O)cc(O)c2c1OC(c1cc3c(cc1O)O[C@@H](c1ccc(O)cc1)[C@@H]3c1cc(O)cc(O)c1)CC2=O (some centres unmarked) [Sophoraflavanone I] | 10 to 80%
O=C1CC(c2ccc(O)cc2O)Oc2cc(O)cc(O)c21 (centres unmarked) [Steppogenin] | > 80%
COc1c(-c2ccc(O)cc2)oc2cc(O)c(CC=C(C)C)c(O)c2c1=O [Topazolin] | > 80%
COc1c(-c2cc(O)c(O)c(CC=C(C)C)c2)oc2cc(O)cc(O)c2c1=O [Uralenol-3-methylether] | > 80%
CC(C)=CCc1cc(-c2oc3cc(O)cc(O)c3c(=O)c2O)cc(O)c1O [Uralenol] | > 80%
CC(C)=CCc1c(O)cc2occ(-c3ccc(O)cc3)c(=O)c2c1O [Wighteone] | > 80%
CC(C)=CCc1cc([C@@H]2CC(=O)c3c(O)cc(O)cc3O2)cc(CC=C(C)C)c1O [abyssinone V] | > 80%
COc1c(-c2ccc(O)c(O)c2)oc2c(CC=C(C)C)c(O)c(CC=C(C)C)c(O)c2c1=O [broussoflavonol B] | > 80%
CC(C)=CCc1cc(-c2oc3cc(O)c(CC=C(C)C)c(O)c3c(=O)c2O)cc(O)c1O [broussonol E] | > 80%
CC(C)=CCc1cc([C@H]2Oc3cc(O)cc(O)c3C(=O)[C@@H]2O)c(O)c(CC=C(C)C)c1O [cathayanon I] | 10 to 80%
